According to patent US8859557B2, “Substituted oxindole derivatives and their use as vasopressin receptor ligands” (Abbott GmbH & Co. KG, priority 2006, dated 2014):

How the values were obtained:
[1] = target: human vasopressin V1a receptor (Homo sapiens, UniProt P37288); test: Vasopressin V1a receptor binding assay; details: selectivity for V1b over V1a, quotient of Ki values
[2] = target: T1, human vasopressin V1b receptor (Homo sapiens, UniProt P47901); test: Vasopressin V1b receptor binding assay; details: displacement of 3H-AVP, membranes of CHO-K1 cells with human V1b receptor
T1 construct: expressed in transfected cells; host or cells: CHO-K1 (cell line hV1b-3H2_CHO), membrane preparation
T1 sequence (P47901 1-424): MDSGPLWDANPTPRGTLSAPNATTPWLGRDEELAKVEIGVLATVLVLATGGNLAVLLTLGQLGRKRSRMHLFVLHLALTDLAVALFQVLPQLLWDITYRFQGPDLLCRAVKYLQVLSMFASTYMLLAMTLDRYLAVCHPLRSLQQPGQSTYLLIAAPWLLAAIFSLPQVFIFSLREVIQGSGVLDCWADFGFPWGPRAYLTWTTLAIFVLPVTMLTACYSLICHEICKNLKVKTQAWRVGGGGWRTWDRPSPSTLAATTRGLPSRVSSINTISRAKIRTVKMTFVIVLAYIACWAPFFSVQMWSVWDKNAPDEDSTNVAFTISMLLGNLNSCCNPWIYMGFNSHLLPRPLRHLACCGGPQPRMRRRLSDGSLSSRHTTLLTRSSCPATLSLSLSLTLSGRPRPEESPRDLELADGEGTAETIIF
Procedure: Methods for Determining the Biological Activity Vasopressin V1b Receptor Binding Assay: Substances:
This series of DMSO predilutions was diluted 1:10 with assay buffer. The substance concentration was again diluted 1:5 in the assay mixture (2% DMSO in the mixture).
All determinations were carried out as triplicate determinations.

[3] = target: T2, recombinant human oxytocin receptors (Homo sapiens, UniProt P30559); test: Oxytocin receptor binding assay; details: selectivity for V1b over oxytocin receptor, quotient of Ki values
T2 construct: expressed in transfected cells; host or cells: HEK-293, transient expression; lysed and homogenized cells
T2 sequence (P30559 1-389): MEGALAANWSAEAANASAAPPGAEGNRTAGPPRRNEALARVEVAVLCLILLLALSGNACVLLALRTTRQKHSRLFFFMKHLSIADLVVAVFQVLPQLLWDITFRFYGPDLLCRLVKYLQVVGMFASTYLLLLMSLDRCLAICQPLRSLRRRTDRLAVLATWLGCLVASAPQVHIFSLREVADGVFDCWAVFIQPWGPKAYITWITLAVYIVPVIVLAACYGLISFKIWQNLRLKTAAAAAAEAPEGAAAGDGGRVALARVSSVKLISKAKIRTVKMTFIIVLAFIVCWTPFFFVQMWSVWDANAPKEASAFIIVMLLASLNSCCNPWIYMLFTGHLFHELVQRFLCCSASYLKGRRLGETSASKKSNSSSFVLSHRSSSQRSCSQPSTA
Procedure: Oxytocin Receptor Binding Assay
Confluent HEK-293 cells with transiently expressing recombinant human oxytocin receptors were centrifuged at 750×g and at room temperature for 5 minutes. The residue was taken up in ice-cold lysis buffer (50 mM Tris-HCl, 10% glycerol, pH 7.4 and Roche Complete Protease Inhibitor) and subjected to an osmotic shock at 4° C. for 20 minutes. The lyzed cells were then centrifuged at 750×g and at 4° C. for 20 minutes, the residue was taken up in incubation buffer, and aliquots of 10^7 cells/ml were prepared. The aliquots were frozen at −80° C. until used.
On the day of the experiment, the cells were thawed, diluted with incubation buffer and homogenized using a Multipette Combitip (Eppendorf, Hamburg). […] The nonspecific binding was determined with 10^−6 M oxytocin (Bachem AG, H2510). Determinations in triplicate were set up. Bound and free radioligand were separated by filtration under vacuum with Whatman GF/B glass fibre filters using a Skatron cell harvester 7000. The bound radioactivity was determined by liquid scintillation measurement in a Tricarb beta counter, model 2000 or 2200CA (Packard).

[4] = Determination of the microsomal half-life / microsomal clearance (human); type: in vitro ADME; details: pH 7.4; human liver microsomes, 0.5 μM test substance, 0.25 mg microsomal protein/ml; read-out: Human Mikrosomal Clearance
Procedure: The metabolic stability of a compound can be determined, for example, by incubating a solution of this compound with liver microsomes from particular species (for example rat, dog or human) and determining the half-life of the compound under these conditions (RS Obach, Curr Opin Drug Discov Devel. 2001, 4, 36-44). It is possible to conclude from an observed larger half-life that the metabolic stability of the compound is improved. The stability in the presence of human liver microsomes is of particular interest since it makes it possible to predict the metabolic degradation of the compound in the human liver. Compounds with increased metabolic stability (determined in the liver microsome test) are therefore probably also degraded more slowly in the liver. The slower metabolic degradation in the liver can lead to higher and/or longer-lasting concentrations (effective levels) of the compound in the body, so that the elimination half-life of the compounds according to the invention is increased. Increased and/or longer-lasting effective levels may lead to a better efficacy of the compound in the treatment or prophylaxis of various vasopressin-dependent diseases. An improved metabolic stability may additionally lead to an increased bioavailability after oral administration, because the compound is subjected, after being absorbed in the intestine, to less metabolic degradation in the liver (so-called first pass effect). An increased oral bioavailability may, because the concentration (effective level) of the compound is increased, lead to a better efficacy of the compound after oral administration.
Determination of the Microsomal Half-Life:
The metabolic stability of the compounds of the invention was determined in the following assay.
The test substances are incubated in a concentration of 0.5 μM as follows:
0.5 μM test substance is preincubated together with liver microsomes of various species (rat, human or other species) (0.25 mg of microsomal protein/ml) in 0.05M potassium phosphate buffer pH 7.4 in microtitre plates at 37° C. for 5 min. The reaction is started by adding NADPH (1 mg/ml). 50 μl aliquots are taken after 0, 5, 10, 15, 20 and 30 min, and the reaction is stopped immediately with the same volume of acetonitrile and cooled down. The samples are frozen until analyzed. Using MSMS, the remaining concentration of undegraded test substance is determined. From the […] of the test substance signal/time unit curve, the half-life (T½) is determined, where the half-life of the test substance can be calculated, assuming first order kinetics, from the decrease in the concentration of the compound with time. The microsomal clearance (mCl) is calculated as mCl=In2/T½/(content of microsomal protein in mg/ml)×1000 [ml/min/mg] (modified according to the literature references: Di, The Society for Biomoleculaur Screening, 2003, 453-462; Obach, DMD, 1999 vol 27. N 11, 1350-1359).

Sequence of human vasopressin V1a receptor (P37288 whole entry): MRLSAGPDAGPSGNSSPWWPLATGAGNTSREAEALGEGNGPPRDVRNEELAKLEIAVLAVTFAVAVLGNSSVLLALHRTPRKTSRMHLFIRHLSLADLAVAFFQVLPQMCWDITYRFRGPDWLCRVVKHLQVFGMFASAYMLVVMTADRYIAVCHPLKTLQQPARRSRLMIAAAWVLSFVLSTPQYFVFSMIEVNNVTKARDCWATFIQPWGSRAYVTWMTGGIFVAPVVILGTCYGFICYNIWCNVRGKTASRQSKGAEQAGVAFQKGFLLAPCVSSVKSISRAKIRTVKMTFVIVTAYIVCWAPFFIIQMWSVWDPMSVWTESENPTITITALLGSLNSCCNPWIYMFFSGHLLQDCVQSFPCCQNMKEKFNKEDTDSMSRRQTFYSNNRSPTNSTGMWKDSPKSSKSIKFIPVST

SMILES | Ki(h-V1a)/Ki(h-V1b) [1] | Ki [2] [µM] | Ki(h-OT)/Ki(h-V1b) [3] | microsomal CLint at 0.5 μM [4] [µL/min/mg]
CCOc1ccccc1S(=O)(=O)N1C(=O)C(NC(=O)N2CCN(C3CCN(C)CC3)CC2)(c2cccnc2OCC)c2cc(C#N)ccc21.O=C(O)C(F)(F)F (racemic) [Example 3, N-[5-Cyano-1-[(2-ethoxyphenyl)sulphonyl]-3-(2-ethoxypyridin-3-yl)-2-oxo-2,3-dihydro-1H-indol-3-yl]-4-(1-methylpiperidin-4-yl)piperazine-1-carboxamide trifluoroacetate] | +++ (>100) | 0.01 to 0.05 | +++ (>50) | 
CCOc1ncccc1C1(NC(=O)N2CCC(C3CCN(C)CC3)CC2)C(=O)N(S(=O)(=O)c2ccc(OC)cc2OC)c2ccc(C#N)cc21 (racemic) [Example 61, N-[5-Cyano-1-[(2,4-dimethoxyphenyl)sulphonyl]-3-(2-ethoxypyridin-3-yl)-2-oxo-2,3-dihydro-1H-indol-3-yl]-1′-methyl-4,4′-bipiperidine-1-carboxamide] | +++ (>100) | < 0.01 | +++ (>50) | 
CCOc1ncccc1C1(NC(=O)N2CCC(C3CCN(CC)CC3)CC2)C(=O)N(S(=O)(=O)c2ccc(OC)cc2OC)c2ccc(C#N)cc21.O=C(O)C(F)(F)F (single isomer, unassigned) [Example 67B, (−)-N-[5-Cyano-1-[(2,4-dimethoxyphenyl)sulphonyl]-3-(2-ethoxypyridin-3-yl)-2-oxo-2,3-dihydro-1H-indol-3-yl]-1′-ethyl-4,4′-bipiperidine-1-carboxamide trifluoroacetate] | +++ (>100) | < 0.01 | +++ (>50) | 
CCOc1ncccc1C1(NC(=O)N2CCC(N3CCN(C)CC3)CC2)C(=O)N(S(=O)(=O)c2ccccc2)c2ccc(C#N)cc21 (racemic) [Example 34, N-[5-Cyano-3-(2-ethoxypyridin-3-yl)-2-oxo-1-(phenylsulphonyl)-2,3-dihydro-1H-indol-3-yl]-4-(4-methylpiperazin-1-yl)piperidine-1-carboxamide] |  |  |  | < 60
CCOc1ncccc1C1(NC(=O)N2CCN(C3CCN(C)CC3)CC2)C(=O)N(S(=O)(=O)c2ccc(OC)cc2)c2ccc(C#N)cc21 (racemic) [Example 5, N-[5-Cyano-3-(2-ethoxypyridin-3-yl)-1-[(4-methoxyphenyl)sulphonyl]-2-oxo-2,3-dihydro-1H-indol-3-yl]-4-(1-methylpiperidin-4-yl)piperazine-1-carboxamide] |  |  |  | < 60
CCOc1ncccc1C1(NC(=O)N2CCC(N3CCN(C)CC3)CC2)C(=O)N(S(=O)(=O)c2ccccc2OC)c2ccc(C#N)cc21 (racemic) [Example 32, N-[5-Cyano-3-(2-ethoxypyridin-3-yl)-1-[(2-methoxyphenyl)sulphonyl]-2-oxo-2,3-dihydro-1H-indol-3-yl]-4-(4-methylpiperazin-1-yl)piperidine-1-carboxamide] | + (15-50) | 0.01 to 0.05 | +++ (>50) | 
CCOc1ncccc1C1(NC(=O)N2CCC(C3CCN(CC)CC3)CC2)C(=O)N(S(=O)(=O)c2ccc(OC)cc2OC)c2ccc(C#N)cc21.O=C(O)C(F)(F)F (racemic) [Example 67, N-[5-Cyano-1-[(2,4-dimethoxyphenyl)sulphonyl]-3-(2-ethoxypyridin-3-yl)-2-oxo-2,3-dihydro-1H-indol-3-yl]-1′-ethyl-4,4′-bipiperidine-1-carboxamide trifluoroacetate] | +++ (>100) | < 0.01 | +++ (>50) | 
CCOc1ncccc1C1(NC(=O)N2CCN(C3CCN(C)CC3)CC2)C(=O)N(S(=O)(=O)c2ccccc2OC)c2ccc(C#N)cc21 (racemic) [Example 2, N-{5-Cyano-3-(2-ethoxypyridin-3-yl)-1-[(2-methoxyphenyl)sulphonyl]-2-oxo-2,3-dihydro-1H-indol-3-yl}-4-(1-methylpiperidin-4-yl)piperazine-1-carboxamide] | +++ (>100) | 0.01 to 0.05 | +++ (>50) | 
CCOc1ncccc1C1(NC(=O)N2CCC(C3CCN(C)CC3)CC2)C(=O)N(S(=O)(=O)c2ccc(OC)cc2OC)c2ccc(C#N)cc21.O=C(O)C(F)(F)F (single isomer, unassigned) [Example 61B, (−)-N-[5-Cyano-1-[(2,4-dimethoxyphenyl)sulphonyl)-3-(2-ethoxypyridin-3-yl)-2-oxo-2,3-dihydro-1H-indol-3-yl]-1′-methyl-4,4′-bipiperidine-1-carboxamide trifluoroacetate] | +++ (>100) |  | +++ (>50) | 
CCCN1CCN(C2CCN(C(=O)NC3(c4cccnc4OCC)C(=O)N(S(=O)(=O)c4ccc(OC)cc4OC)c4ccc(C#N)cc43)CC2)CC1 (racemic) [Example 43, N-[5-Cyano-1-[(2,4-dimethoxyphenyl)sulphonyl]-3-(2-ethoxypyridin-3-yl)-2-oxo-2,3-dihydro-1H-indol-3-yl]-4-(4-propylpiperazin-1-yl)piperidine-1-carboxamide] | +++ (>100) | < 0.01 | +++ (>50) | 
